Results as given in patent publication US20240262833A1, “FUSED HETEROCYCLIC DERIVATIVES AS NEGATIVE ALLOSTERIC MODULATORS OF MGLU7 RECEPTOR” (Addex Pharma S.A., priority 2021, published 2024).

Each compound was assayed against T1, human metabotropic glutamate 7 receptor (hmGlu7) (Homo sapiens, UniProt Q14831) (assay: mGlu7 assay on HEK-expressing human mGlu7: fluorescent cell based Ca2+ mobilization assay (FLIPR), inhibition of EC80 L-AP4 response). Conditions: HEK-293 cells expressing hmGlu7; EC80 L-AP4 stimulation; mean of at least three independent experiments in duplicate; read-out: Ca2+ Flux (mean IC50).
T1 construct: expressed in transfected cells
Excerpt: mGlu7 Assay on HEK-Expressing Human mGlu7
The cDNA encoding the human metabotropic glutamate 7 receptor (hmGlu7), (accession number NM_181874.2, NCBI Nucleotide database browser), was subcloned into an expression vector containing also the hygromycin resistance gene. In parallel, the cDNA encoding a G protein allowing redirection of the activation signal to intracellular calcium flux was subcloned into a different expression vector containing also the Puromycin resistance gene. Transfection of both these vectors into HEK293 cells with PolyFect reagent (Qiagen) according to supplier's protocol, and hygromycin and puromycin treatment allowed selection of antibiotic resistant cells which had integrated stably one or more copies of the plasmids. Positive cellular clones expressing hmGlu7 were identified in a functional assay measuring changes in calcium fluxes in response to glutamate and L-AP4 or known mGlu7 orthosteric antagonists.
HEK-293 cells expressing hmGlu7 were maintained in media containing DMEM, Fetal Bovine Serum (10%), Glutamax™ (2 mM), penicillin (100 units/mL), streptomycin (100 μg/mL), geneticin (100 μg/mL) and hygromycin-B (40 μg/mL) and puromycin (1 μg/mL) at 37° C. with 5% CO2 in a humidified atmosphere.
Fluorescent Cell Based-Ca^2+ Mobilization Assay Human mGlu7 HEK-293 cells were plated out 24 hours prior to a fluorescent cell-based calcium mobilization assay using FLIPR^384 assay (Molecular Device, Sunnyvale, CA, USA) in black-walled, clear-bottomed, poly-L-ornithine-coated 384-well plates at a density of 25,000 cells/well in a glutamine/glutamate free DMEM medium containing fetal bovine serum (10%), penicillin (100 units/mL), streptomycin (100 μg/mL) and doxycyline (1 μg/ml) at 37° C. with 5% CO2 in a humidified atmosphere.
On the day of the assay, the medium was aspirated and the cells were loaded with a 3 μM solution of Fluo4-AM (LuBioScience, Lucerne, Switzerland) in 0.03% pluronic acid. After 1 hour at 37° C./5% CO2, the non incorporated dye was removed by washing cell plate with the assay buffer. All assays were performed in a pH 7.4 buffered-solution containing 20 mM HEPES, 143 mM NaCl, 6 mM KCl, 1 mM MgSO4, 1 mM CaCl2, 0.125 mM sulfinpyrazone and 0.1% glucose.
After 10 s of basal fluorescence recording, various concentrations of the compounds of the invention were added to the cells. Changes in fluorescence levels were first monitored for 180 s in order to detect any agonist activity of the compounds. Then the cells were stimulated by an EC80 L-AP4 concentration for an additional 110 s in order to measure inhibiting activities of the compounds of the invention. EC80 L-AP4 concentration is the concentration giving 80% of the maximal glutamate response.
The concentration-response curves of L-AP4 or representative compounds of the present invention were generated using the Prism GraphPad software (Graph Pad Inc, San Diego, USA). The curves were fitted to a four-parameter logistic equation: […]
allowing determination of IC50 values.
The Table 3 below represents the mean IC50 obtained from at least three independent experiments of selected molecules performed in duplicate.

T1 sequence (Q14831 35-922 isoform Q14831-2): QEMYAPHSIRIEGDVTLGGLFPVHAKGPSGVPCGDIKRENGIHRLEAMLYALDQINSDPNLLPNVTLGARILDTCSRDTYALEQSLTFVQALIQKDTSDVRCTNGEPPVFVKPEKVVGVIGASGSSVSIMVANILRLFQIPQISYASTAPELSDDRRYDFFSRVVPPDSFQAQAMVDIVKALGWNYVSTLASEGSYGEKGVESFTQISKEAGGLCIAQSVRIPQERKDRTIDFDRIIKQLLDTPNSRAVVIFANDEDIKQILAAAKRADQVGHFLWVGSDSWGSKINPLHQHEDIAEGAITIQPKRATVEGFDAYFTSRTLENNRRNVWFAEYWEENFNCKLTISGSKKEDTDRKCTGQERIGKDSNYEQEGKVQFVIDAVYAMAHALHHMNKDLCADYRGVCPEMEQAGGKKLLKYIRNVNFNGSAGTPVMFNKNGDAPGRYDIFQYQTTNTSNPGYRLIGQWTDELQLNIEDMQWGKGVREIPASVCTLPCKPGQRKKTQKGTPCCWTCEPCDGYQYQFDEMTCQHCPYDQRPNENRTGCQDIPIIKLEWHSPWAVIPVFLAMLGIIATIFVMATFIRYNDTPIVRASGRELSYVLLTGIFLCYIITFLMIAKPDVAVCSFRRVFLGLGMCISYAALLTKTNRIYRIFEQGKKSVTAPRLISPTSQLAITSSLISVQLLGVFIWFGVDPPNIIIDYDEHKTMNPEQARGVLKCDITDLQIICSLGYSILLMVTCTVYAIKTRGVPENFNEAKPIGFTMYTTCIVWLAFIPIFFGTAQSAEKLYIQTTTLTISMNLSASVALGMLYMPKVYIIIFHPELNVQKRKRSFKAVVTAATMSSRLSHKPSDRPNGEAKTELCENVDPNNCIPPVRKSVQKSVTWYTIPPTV

| IC50 | Compound |
| --- | --- |
| < 100 nM | Cc1c2cnn(-c3ccc(CCO)cc3)c(=O)c2c(C)n1-c1cccc(N2CCC2)c1 [1-169, 6-(3-(Azetidin-1-yl)phenyl)-2-(4-(2-hydroxyethyl)phenyl)-5,7-dimethyl-2,6-dihydro-1H-pyrrolo[3,4-d]pyridazin-1-one] |
| 100 to 1000 nM | Cc1c2cnn(-c3ccccc3Cl)c(=O)c2c(C)n1-c1ccccc1 [1-20] |
| < 100 nM | Cc1c2cnn(-c3ncccc3F)c(=O)c2c(C)n1-c1cc(F)cc(N2CCC2)c1 [1-209] |
| < 100 nM | Cc1c2cnn(-c3ncccn3)c(=O)c2c(C)n1-c1cccc2c1ccn2C1CC1 [1-198] |
| 1000 to 10000 nM | Cc1c2cnn(-c3ccccc3)c(=O)c2c(C)n1-c1cccc(Br)c1 [1-34, 6-(3-bromophenyl)-5,7-dimethyl-2-phenyl-2,6-dihydro-1H-pyrrolo[3,4-d]pyridazin-1-one] |
| < 100 nM | Cc1c2cnn(-c3ccccn3)c(=O)c2c(C)n1-c1cc(N2CCC2)ccc1F [1-196] |
| 100 to 1000 nM | Cc1c2cnn(-c3ccccn3)c(=O)c2c(C)n1-c1cccc(N2CCC(C)(C)C2)c1 [1-179] |
| 100 to 1000 nM | Cc1c2cnn(-c3ccccc3)c(=O)c2c(C)n1-c1ccc(Cl)cc1 [1-8] |
| 100 to 1000 nM | Cc1ccc(-n2c(C)c3cnn(-c4ccccc4)c(=O)c3c2C)c(C)c1 [1-32] |
| 100 to 1000 nM | CCOc1ccc(-n2ncc3c(C)n(-c4ccccc4)c(C)c3c2=O)cc1 [1-60] |
| 100 to 1000 nM | COc1cccc(-n2c(C)c3cnn(-c4ccc(C(=O)N(C)C)cc4)c(=O)c3c2C)c1 [1-75] |
| 100 to 1000 nM | Cc1c2cnn(-c3ccc(S(=O)(=O)N(C)C)cc3)c(=O)c2c(C)n1-c1ccccc1 [1-87] |
| < 100 nM | Cc1c2cnn(-c3ccc(F)cc3)c(=O)c2c(C)n1-c1ccccc1 [1-11] |
| < 100 nM | Cc1c(OC2CC2)cccc1-n1c(C)c2cnn(-c3ncccc3F)c(=O)c2c1C [1-211] |
| 100 to 1000 nM | Cc1c2cnn(-c3ccccn3)c(=O)c2c(C)n1-c1cccc(C2CC2)c1 [1-137] |
| 100 to 1000 nM | Cc1cccc(-n2c(C)c3cnn(-c4ccccn4)c(=O)c3c2C)c1 [1-45] |
| 100 to 1000 nM | CNC(=O)c1ccc(-n2ncc3c(C)n(-c4cccc(OC)c4)c(C)c3c2=O)cc1 [1-113] |
| < 100 nM | Cc1cccc(-n2c(C)c3cnn(-c4ccccc4)c(=O)c3c2C)c1 [1-6] |
| 100 to 1000 nM | CCc1ccc(-n2c(C)c3cnn(-c4ccccn4)c(=O)c3c2C)cc1 [1-86] |
| 100 to 1000 nM | COc1cccc(-n2c(C)c3cnn(-c4cccc(C(=O)N(C)C)c4)c(=O)c3c2C)c1 [1-112] |
| 100 to 1000 nM | COc1ccc(-n2ncc3c(C)n(-c4ccccc4)c(C)c3c2=O)cn1 [1-52] |

| IC50 | Compound |
| --- | --- |
| 100 to 1000 nM | Cc1c2cnn(-c3ccccn3)c(=O)c2c(C)n1-c1cccc(OC(C)C)c1 [1-139] |
| < 100 nM | CNC(=O)Cc1ccc(-n2ncc3c(C)n(-c4cccc(N5CCC5)c4)c(C)c3c2=O)cc1 [1-180] |
| < 100 nM | Cc1c2cnn(-c3ncccc3F)c(=O)c2c(C)n1-c1cc(N2CCC2)ccc1F [1-217] |
| < 100 nM | COc1cccc(-n2c(C)c3cnn(-c4ccc(CO)cc4)c(=O)c3c2C)c1 [1-66] |
| < 100 nM | Cc1ccc(-n2ncc3c(C)n(-c4cccc(N5CCC5)c4)c(C)c3c2=O)nc1 [1-155] |
| 100 to 1000 nM | Cc1c2cnn(-c3ccccn3)c(=O)c2c(C)n1-c1cccc(OC2CC2)c1F [1-235] |
| < 100 nM | Cc1c2cnn(-c3ccccn3)c(=O)c2c(C)n1-c1cccc(N2CCCCC2)c1 [1-143] |
| < 100 nM | Cc1ccc(-n2ncc3c(C)n(-c4cccc(N5CCC5)c4)c(C)c3c2=O)cn1 [1-157] |
| < 100 nM | COc1cccc(-n2c(C)c3cnn(-c4ccc(S(C)(=O)=O)cc4)c(=O)c3c2C)c1 [1-119] |
| 100 to 1000 nM | Cc1c2cnn(-c3ccc(N4CCOCC4)cc3)c(=O)c2c(C)n1-c1cccc(N2CCC2)c1 [1-219] |
| 1000 to 10000 nM | Cc1c(OC2CC2)cccc1-n1c(C)c2cnn(-c3ccc(N4CCOCC4)cc3)c(=O)c2c1C [1-221] |
| < 100 nM | Cc1c2cnn(-c3ncc(F)cn3)c(=O)c2c(C)n1-c1cccc(N2CCC2)c1 [1-226] |
| 1000 to 10000 nM | COc1ccc(-n2c(C)c3cnn(-c4ncccn4)c(=O)c3c2C)cn1 [1-241] |
| < 100 nM | Cc1ccc(-n2c(C)c3cnn(-c4ccccc4)c(=O)c3c2C)cc1 [1-1] |
| < 100 nM | Cc1c(OC2CC2)cccc1-n1c(C)c2cnn(-c3ncc(F)cn3)c(=O)c2c1C [1-212] |
| 100 to 1000 nM | COc1cccc(-n2c(C)c3cnn(-c4ccc(OC)c(OC)c4)c(=O)c3c2C)c1 [1-117] |
| 1000 to 10000 nM | COc1ccccc1-n1c(C)c2cnn(-c3ccccn3)c(=O)c2c1C [1-193] |
| 100 to 1000 nM | COc1ccc(-n2c(C)c3cnn(-c4ccc(OC)cc4)c(=O)c3c2C)cc1 [1-103] |
| 100 to 1000 nM | COC(=O)c1ccc(-n2ncc3c(C)n(-c4cccc(OC)c4)c(C)c3c2=O)cc1OC [1-105] |
| 100 to 1000 nM | CCc1cccc(-n2c(C)c3cnn(-c4ccccn4)c(=O)c3c2C)c1 [1-85] |
| 100 to 1000 nM | Cc1c2cnn(C3CCCC3)c(=O)c2c(C)n1-c1cccc(N2CCC2)c1 [1-190] |

| IC50 | Compound |
| --- | --- |
| 100 to 1000 nM | Cc1c2cnn(-c3ccccc3)c(=O)c2c(C)n1-c1ccc(N(C)C)cc1 [1-23] |
| < 100 nM | COc1ccc(-n2ncc3c(C)n(-c4cccc(OC)c4)c(C)c3c2=O)cc1 [1-97] |
| 100 to 1000 nM | Cc1c2cnn(-c3ccc(C#N)cc3)c(=O)c2c(C)n1-c1ccccc1 [1-17] |
| < 100 nM | Cc1c2cnn(-c3cccnc3)c(=O)c2c(C)n1-c1cccc(N2CCC2)c1 [1-164] |
| < 100 nM | Cc1c2cnn(-c3ccccn3)c(=O)c2c(C)n1-c1cccc(N2CCC2)c1 [1-102, 6-(3-(Azetidin-1-yl)phenyl)-5,7-dimethyl-2-(pyridin-2-yl)-2,6-dihydro-1H-pyrrolo[3,4-d]pyridazin-1-one] |
| 100 to 1000 nM | COc1ccc(-n2c(C)c3cnn(-c4ccccn4)c(=O)c3c2C)cc1 [1-47] |
| 100 to 1000 nM | COc1cccc(-n2c(C)c3cnn(-c4ccc5ccccc5n4)c(=O)c3c2C)c1 [1-61] |
| < 100 nM | Cc1c2cnn(-c3ccccc3)c(=O)c2c(C)n1-c1cccc(N2CCC2)c1 [1-141] |
| < 100 nM | Cc1c2cnn(-c3ncc(F)cn3)c(=O)c2c(C)n1-c1cccc2c1ccn2C1CC1 [1-214] |
| 100 to 1000 nM | Cc1ccc(-n2c(C)c3cnn(-c4ccccn4)c(=O)c3c2C)cc1 [1-48] |
| 100 to 1000 nM | COc1ccc(-n2c(C)c3cnn(-c4cccnc4)c(=O)c3c2C)cc1 [1-46] |
| < 100 nM | COCCOc1ccc(-n2ncc3c(C)n(-c4cccc(N5CCC5)c4)c(C)c3c2=O)cc1 [1-162] |
| 100 to 1000 nM | Cc1c2cnn(-c3ncc(F)cn3)c(=O)c2c(C)n1-c1cc(N2CCC2)ccc1F [1-218] |
| 100 to 1000 nM | Cc1c2cnn(-c3ccc(CO)cc3)c(=O)c2c(C)n1-c1ccccc1 [1-92] |
| 1000 to 10000 nM | COc1ccccc1-n1ncc2c(C)n(-c3ccccc3)c(C)c2c1=O [1-5] |
| 100 to 1000 nM | Cc1c(OC(F)F)cccc1-n1c(C)c2cnn(-c3ccccn3)c(=O)c2c1C [1-232] |
| < 100 nM | COc1cccc(-n2c(C)c3cnn(-c4ccc(O)cc4)c(=O)c3c2C)c1 [1-145] |
| 100 to 1000 nM | Cc1c2cnn(-c3ccccn3)c(=O)c2c(C)n1-c1cccc(C(F)(F)F)c1 [1-53] |
| 1000 to 10000 nM | Cc1c2cnn(-c3ncccn3)c(=O)c2c(C)n1-c1ccccc1 [1-58] |
| < 100 nM | Cc1cccc(-n2ncc3c(C)n(-c4ccccc4)c(C)c3c2=O)c1 [1-14] |
| < 100 nM | CC(=O)c1ccc(-n2c(C)c3cnn(-c4ccccc4)c(=O)c3c2C)cc1 [1-31] |
